A short description of series [1]: Pharmacokinetic test in rats in vivo, plasma concentration after oral administration. To be noted: for Cmax: 10 mg/kg, intragastric, suspension in sodium carboxymethyl cellulose solution. As for the experimental part: Experimental method: SD rats were used as experimental animals and intragastrically administrated with a milky white suspension prepared from a sodium carboxymethyl cellulose solution at a dose of 10 mg/kg. After the intragastric administration, blood was collected at the time points of 0.17, 0.33, 0.5, 1, 1.5, 2, 4, 6, 8, 12 and 24 h. 0.3 ml of whole blood was taken and subjected to centrifugation, and then 0.1 ml of plasma was taken and analyzed by LC-MS.

A short description of series [2]: Equilibrium solubility of crystal forms in purified water (HPLC). It counts as physicochemical. To be noted: for Water solubility: saturated (equilibrium) solubility in purified water, room temperature, HPLC, methanesulfonate; for Solubility in water (in words): summary of Table 8. From the text: Preparation of a standard curve: Appropriate amounts of a series of compounds were accurately weighed, placed in volumetric flasks, and dissolved and diluted with an appropriate amount of acetonitrile to a certain scale to serve as stock solutions. Appropriate amounts of the stock solutions were accurately weighed, placed in volumetric flasks, diluted with a mobile phase to a certain scale, and uniformly shaken to obtain a series of high-concentration standard solutions and low-concentration standard solutions. The standard solutions were separately sampled in the sequence from low concentration to high concentration, and peak areas were recorded. Linear regression was conducted with the compound concentration as the abscissa and the peak area as the ordinate to obtain a linear regression equation of a compound, namely, a standard curve of the solubility of the compound as shown in the formula (I).
Determination of equilibrium solubility: An excess amount of a compound was placed in a 10 mL plugged EP tube, 2 mL of purified water was added, and the compound was subjected to ultrasonic treatment at room temperature for 15 min, followed by standing for 20 min. The above operations were repeated for 4 times, centrifugation was conducted at 3,000 r/min for 10 min, and a supernatant was taken (after the supernatant was properly diluted with a solvent) and filtered through a microporous filtration membrane. A filtrate was taken for HPLC detection, and the peak area was recorded and substituted into the standard curve to calculate the saturated solubility of each compound in water.

Series [3] in a line: Pharmacokinetic test in dogs in vivo, plasma concentration after oral administration. Particulars: Beagles. Here is the method:
Experimental method: Beagles were used as experimental animals and intragastrically administrated with a milky white suspension prepared from a sodium carboxymethyl cellulose solution at a dose of 10 mg/kg. After the intragastric administration, blood was collected at the time points of 0, 0.5, 1, 2, 3, 4, 6, 8 and 24 h. 0.3 ml of whole blood was taken and subjected to centrifugation, and then 0.1 ml of plasma was taken and analyzed by LC-MS.

The mark [4] stands for this setting: SD, rat, plasma, po, mean n=3, read-out: Cmax.
The mark [5] stands for this setting: SD rats, mean n=3, methanesulfonate.

The structures appear in SMILES notation. Where two headings read alike, the source gives them in different places.

This note sets out measurements from patent US12692270B2, “Crystal form of casein kinase 1ϵ inhibitor and preparation method and use thereof” (HANGZHOU HEALZEN THERAPEUTICS CO., LTD., priority 2020, dated 2026).

Usually Cmax stands for the peak of the concentration-time curve. As to `COc1ccc(-c2nn([C@@H](C)c3nc4cccc(Cl)c4c(=O)n3-c3ccccc3)c3ncnc(N)c23)c(F)c1F` [(S)-2-(1-(4-amino-3-(2,3-difluoro-4-methoxyphenyl)-1H-pyrazolo[3,4-d]pyrimidin-1-yl)ethyl)-5-chloro-3-phenylquinazoline-4(3H)-one], the Cmax in series [1] (setting [4]) came out at 456 ng/mL.
With `COc1ccc(-c2nn([C@@H](C)c3nc4cccc(Cl)c4c(=O)n3-c3ccccc3)c3ncnc(N)c23)c(F)c1F.CS(=O)(=O)O` [Crystal form A, (S)-2-(1-(4-amino-3-(2,3-difluoro-4-methoxyphenyl)-1H-pyrazolo[3,4-d]pyrimidin-1-yl)ethyl)-5-chloro-3-phenylquinazoline-4(3H)one methanesulfonate], in series [2], the Water solubility was below 1.0 µg/mL and the “Solubility in water (in words)” value is listed as “soluble in water”.
For `COc1ccc(-c2nn([C@@H](C)c3nc4cccc(Cl)c4c(=O)n3-c3ccccc3)c3ncnc(N)c23)c(F)c1F.CS(=O)(=O)O` [Crystal form B, (S)-2-(1-(4-amino-3-(2,3-difluoro-4-methoxyphenyl)-1H-pyrazolo[3,4-d]pyrimidin-1-yl)ethyl)-5-chloro-3-phenylquinazoline-4(3H)one methanesulfonate] the same measures were 2.50 µg/mL and “soluble in water”.
On to `COc1ccc(-c2nn([C@@H](C)c3nc4cccc(Cl)c4c(=O)n3-c3ccccc3)c3ncnc(N)c23)c(F)c1F.CS(=O)(=O)O` [Crystal form C, (S)-2-(1-(4-amino-3-(2,3-difluoro-4-methoxyphenyl)-1H-pyrazolo[3,4-d]pyrimidin-1-yl)ethyl)-5-chloro-3-phenylquinazoline-4(3H)one methanesulfonate], for which the maximum concentration (Cmax) in series [1] (setting [4]) came to 1640 ng/mL. For the same compound, in series [2], the Water solubility turned out to be 3.84 µg/mL and the “Solubility in water (in words)” value is given as “soluble in water”.
`COc1ccc(-c2nn([C@@H](C)c3nc4cccc(Cl)c4c(=O)n3-c3ccccc3)c3ncnc(N)c23)c(F)c1F.CS(=O)(=O)O` [Crystal form D, (S)-2-(1-(4-amino-3-(2,3-difluoro-4-methoxyphenyl)-1H-pyrazolo[3,4-d]pyrimidin-1-yl)ethyl)-5-chloro-3-phenylquinazoline-4(3H)one methanesulfonate]: in series [1] (setting [5]), the Cmax is listed as 1866.0 ng/mL. Besides, in series [2], the Water solubility worked out at 4.60 µg/mL and the “Solubility in water (in words)” value is recorded as “soluble in water”.
On to `COc1ccc(-c2nn([C@@H](C)c3nc4cccc(Cl)c4c(=O)n3-c3ccccc3)c3ncnc(N)c23)c(F)c1F.CS(=O)(=O)O` [Crystal form E, (S)-2-(1-(4-amino-3-(2,3-difluoro-4-methoxyphenyl)-1H-pyrazolo[3,4-d]pyrimidin-1-yl)ethyl)-5-chloro-3-phenylquinazoline-4(3H)one methanesulfonate], for which, in series [2], the Water solubility turned out to be 1.25 µg/mL and the “Solubility in water (in words)” value is on record as “soluble in water”.
The term AUC denotes concentration integrated over time. A lower AUC goes with less exposure. Regarding `COc1ccc(-c2nn([C@@H](C)c3nc4cccc(Cl)c4c(=O)n3-c3ccccc3)c3ncnc(N)c23)c(F)c1F.CS(=O)(=O)O` [Crystal form F, (S)-2-(1-(4-amino-3-(2,3-difluoro-4-methoxyphenyl)-1H-pyrazolo[3,4-d]pyrimidin-1-yl)ethyl)-5-chloro-3-phenylquinazoline-4(3H)one methanesulfonate], the highest concentration (Cmax) in series [1] (setting [5]) turned out to be 2855.31 ng/mL. Besides, the AUC in series [3] (beagle, dog, plasma, po, intragastric, 10 mg/kg, suspension in sodium carboxymethyl cellulose solution, mean n=2, NA = value lower than the lower detection limit) amounted to 3820 ng·h/mL. In series [2], the Water solubility worked out at 24.80 µg/mL and the “Solubility in water (in words)” value is recorded as “soluble in water”.
As for `COc1ccc(-c2nn([C@@H](C)c3nc4cccc(Cl)c4c(=O)n3-c3ccccc3)c3ncnc(N)c23)c(F)c1F.CS(=O)(=O)O` [compound as shown in the formula (I), (S)-2-(1-(4-amino-3-(2,3-difluoro-4-methoxyphenyl)-1H-pyrazolo[3,4-d]pyrimidin-1-yl)ethyl)-5-chloro-3-phenylquinazoline-4(3H)one methanesulfonate], the “Pharmacokinetic properties compared with the free alkali (in words)” value in series [1] (SD rats, oral 10 mg/kg, crystal forms C, D and F investigated) is “significantly improved”; in series [3] (oral 10 mg/kg, crystal form F investigated), “significantly improved”.
